We go through 53 compounds from patent US8178530B2, “Imidazolopyrazine compounds useful for the treatment of degenerative and inflammatory diseases” (Janssen Pharmaceutica NV, priority 2006, dated 2012).

The subject of the test is MMP1 expression by SFs. Nature of the test: 'MMP assay': MMP1 expression by 'complex trigger' activated synovial fibroblasts (MMP1 ELISA). The format is cell-based, human. Particulars: Homo sapiens, Fibroblast, RASFs, 48 hrs. For orientation: ELISA stands for enzyme-linked immunosorbent assay.

On to `CN1CCN(c2ccc(Nc3ncc(-c4ccc(C(N)=O)nc4)n4ccnc34)cc2)CC1` [Compound 129, 5-{8-[4-(4-Methyl-piperazin-1-yl)-phenylamino]-imidazo[1,2-a]pyrazin-5-yl}-pyridine-2-carboxylic acid amide], for which the EC50 is greater than 1000 nM.

Consider `CNC(=O)c1ccc(-c2cnc(Nc3ccc(N4CCN(C)CC4)cc3)c3nccn23)cc1` [Compound 116], for which the half-maximal effective concentration (EC50) was greater than 1000 nM.

For `Cc1[nH]ncc1-c1cnc(Nc2ccc(N3CCOCC3)cc2)c2nccn12` [Compound 176], the concentration giving a half-maximal response (EC50) was greater than 1000 nM.

Turning to `c1cn2c(-c3c[nH]cn3)cnc(Nc3ccc(N4CCOCC4)cc3)c2n1` [Compound 163], the EC50 is greater than 1000 nM.

`O=C1NCc2cc(-c3cnc(Nc4ccc(N5CCOCC5)cc4)c4nccn34)sc21` [Compound 198, 2-[8-(4-Morpholin-4-yl-phenylamino)-imidazo[1,2-a]pyrazin-5-yl]-4,5-dihydro-thieno[2,3-c]pyrrol-6-one]: the half-maximal effective concentration (EC50) is 101 to 500 nM.

In the case of `NC(=O)c1ccc(-c2cnc(Nc3ccc(OCCN4CCOCC4)cc3)c3nccn23)cc1F` [Compound 146], the EC50 fell in the range of 501 to 1000 nM.

As for `C[C@@H]1CN(C)[C@@H](C)CN1c1ccc(Nc2ncc(-c3ccc(C(N)=O)cc3)n3ccnc23)cc1` [Compound 137], the EC50 lay in the range of 101 to 500 nM.

In the case of `NC(=O)c1ccc(Nc2ncc(-c3cn[nH]c3)n3ccnc23)cc1` [Compound 11], the EC50 is greater than 1000 nM.

As for `CN1CCC(Oc2ccc(Nc3ncc(-c4ccc(C(N)=O)c(F)c4)n4ccnc34)cc2)CC1` [Compound 149], the EC50 was greater than 1000 nM.

As to `Cn1nnc(-c2ccc(Nc3ncc(-c4cn[nH]c4)n4ccnc34)cc2)n1` [Compound 169, [4-(2-Methyl-2H-tetrazol-5-yl)-phenyl]-[5-(1H-pyrazol-4-yl)-imidazo[1,2-a]pyrazin-8-yl]-amine], the 50% effective concentration (EC50) lay within 101 to 500 nM.

Take `CN(C)C(CNC(=O)c1ccc(Nc2ncc(-c3cc[nH]c(=O)c3)n3ccnc23)cc1)c1cccnc1` (centres unmarked) [Compound 114]: the EC50 was greater than 1000 nM.

Consider `CCN(CC)CCNC(=O)c1ccc(Nc2ncc(-c3cn[nH]c3)n3ccnc23)cc1F` [Compound 82], for which the EC50 is greater than 1000 nM.

Turning to `C[C@@H]1CN(c2ccc(Nc3ncc(-c4cc(F)c(C(N)=O)c(F)c4)n4ccnc34)cc2)[C@@H](C)CN1C` [Compound 181], the EC50 is greater than 1000 nM.

Consider `CN1CCN(c2ccc(Nc3ncc(-c4ccc(C(N)=O)cc4)n4ccnc34)cc2F)CC1` [Compound 171, 4-{8-[3-Fluoro-4-(4-methyl-piperazin-1-yl)-phenylamino]-imidazo[1,2-a]pyrazin-5-yl}-benzamide], for which the EC50 lay in the range of 101 to 500 nM.

As for `CN1CCC(NC(=O)c2ccc(Nc3ncc(-c4cn[nH]c4)n4ccnc34)cc2)C1` (centres unmarked) [Compound 64], the EC50 is greater than 1000 nM.

As to `CCN(CC)CCNC(=O)c1ccc(Nc2ncc(-c3cn[nH]c3)n3ccnc23)cc1` [Compound 32, N-(2-Diethylamino-ethyl)-4-[5-(1H-pyrazol-4-yl)-imidazo[1,2-a]pyrazin-8-ylamino]-benzamide], the half-maximal effective concentration (EC50) was greater than 1000 nM.

`C[C@@H]1CN(c2ccc(Nc3ncc(-c4csc(C(N)=O)c4)n4ccnc34)cc2)[C@@H](C)CN1C` [Compound 186]: the EC50 was 501 to 1000 nM.

Turning to `O=C(NCc1cccnc1)c1ccc(Nc2ncc(-c3cn[nH]c3)n3ccnc23)cc1` [Compound 35], the EC50 was greater than 1000 nM.

On to `CN1CCN(c2ccc(Nc3ncc(-c4ccc(C(N)=O)o4)n4ccnc34)cc2)CC1` [Compound 139, 5-{8-[4-(4-Methyl-piperazin-1-yl)-phenylamino]-imidazo[1,2-a]pyrazin-5-yl}-furan-2-carboxylic acid amide], for which the EC50 was greater than 1000 nM.

For `CC(C)N1CCN(c2ccc(Nc3ncc(-c4ccc(C(N)=O)cc4)n4ccnc34)cc2)CC1` [Compound 142], the half-maximal effective concentration (EC50) was in the range of 501 to 1000 nM.

For the compound `O=C(NCCc1cccnc1)c1ccc(Nc2ncc(-c3cn[nH]c3)n3ccnc23)cc1` [Compound 93], the 50% effective concentration (EC50) was greater than 1000 nM.

For the compound `Cc1cc(C(N)=O)ccc1-c1cnc(Nc2ccc(N3CCN(C)CC3)cc2)c2nccn12` [Compound 120], the concentration giving a half-maximal response (EC50) was greater than 1000 nM.

For `CC(C)N1CCN(c2ccc(Nc3ncc(-c4ccc5c(c4)CNC5=O)n4ccnc34)cc2)CC1` [Compound 205, 5-{8-[4-(4-Isopropyl-piperazin-1-yl)-phenylamino]-imidazo[1,2-a]pyrazin-5-yl}-2,3-dihydro-isoindol-1-one], the EC50 is greater than 1000 nM.

For `CCNCCNC(=O)c1ccc(Nc2ncc(-c3cn[nH]c3)n3ccnc23)cc1` [Compound 56], the concentration for a half-maximal effect (EC50) was greater than 1000 nM.

For `O=C(c1ccc(Nc2ncc(-c3cn[nH]c3)n3ccnc23)cc1)N1CCOCC1` [Compound 45], the concentration for a half-maximal effect (EC50) is greater than 1000 nM.

Consider `C[C@@H]1CN(c2ccc(Nc3ncc(-c4cc(C(N)=O)co4)n4ccnc34)cc2)[C@@H](C)CN1C` [Compound 187], for which the EC50 lay within 101 to 500 nM.

As to `c1cn2c(-c3cn[nH]c3C3CC3)cnc(Nc3ccc(N4CCOCC4)cc3)c2n1` [Compound 160, [5-(5-Cyclopropyl-1H-pyrazol-4-yl)-imidazo[1,2-a]pyrazin-8-yl]-(4-morpholin-4-yl-phenyl)-amine], the half-maximal effective concentration (EC50) is greater than 1000 nM.

Turning to `c1cn2c(-c3cn[nH]c3)cnc(Nc3ccc(OCCN4CCOCC4)cc3)c2n1` [Compound 150, [4-(2-Morpholin-4-yl-ethoxy)-phenyl]-[5-(1H-pyrazol-4-yl)-imidazo[1,2-a]pyrazin-8-yl]-amine], the EC50 was greater than 1000 nM.

In the case of `CN(C)Cc1cn(-c2ccc(Nc3ncc(-c4ccc(C(N)=O)cc4)n4ccnc34)cc2)nn1` [Compound 166, 4-{8-[4-(4-Dimethylaminomethyl-[1,2,3]triazol-1-yl)-phenylamino]-imidazo[1,2-a]pyrazin-5-yl}-benzamide], the concentration giving a half-maximal response (EC50) was greater than 1000 nM.

Take `NC(=O)c1ccc(-c2cnc(Nc3ccc(-c4cccnc4)cc3)c3nccn23)cc1` [Compound 153]: the 50% effective concentration (EC50) is 101 to 500 nM.

For `CS(=O)(=O)c1ccc(Nc2ncc(-c3cn[nH]c3)n3ccnc23)cc1` [Compound 71], the EC50 is greater than 1000 nM.

Turning to `CN1CCN(c2ccc(Nc3ncc(-c4ccc(C(N)=O)cc4)n4ccnc34)cc2Cl)CC1` [Compound 136, 4-{8-[3-Chloro-4-(4-methyl-piperazin-1-yl)-phenylamino]-imidazo[1,2-a]pyrazin-5-yl}-benzamide], the EC50 was greater than 1000 nM.

As to `O=C(Nc1ccccc1)c1ccc(Nc2ncc(-c3cn[nH]c3)n3ccnc23)cc1` [Compound 41], the EC50 is greater than 1000 nM.

As to `c1cn(-c2ccc(Nc3ncc(-c4cn[nH]c4)n4ccnc34)cc2)cn1` [Compound 168, (4-Imidazol-1-yl-phenyl)-[5-(1H-pyrazol-4-yl)-imidazo[1,2-a]pyrazin-8-yl]-amine], the EC50 was greater than 1000 nM.

Regarding `NC(=O)c1c(F)cc(-c2cnc(Nc3ccc(N4CCOCC4)cc3)c3nccn23)cc1F` [Compound 165], the EC50 is greater than 1000 nM.

For `Cc1[nH]ncc1-c1cnc(Nc2ccc(N3CCN(C)CC3)cc2)c2nccn12` [Compound 119, (4-(4-Methylpiperazin-1-yl)phenyl)-[5-(5-methyl-1H-pyrazol-4-yl)imidazo[1,2-a]pyrazin-8-yl]amine], the EC50 was greater than 1000 nM.

In the case of `CC(C)N1CCN(c2ccc(Nc3ncc(-c4coc(C(N)=O)c4)n4ccnc34)cc2)CC1` [Compound 204, 4-{8-[4-(4-Isopropyl-piperazin-1-yl)-phenylamino]-imidazo[1,2-a]pyrazin-5-yl}-furan-2-carboxylic acid amide], the EC50 was 501 to 1000 nM.

For `CN1CCN(c2ccc(Nc3ncc(-c4cc(C(N)=O)co4)n4ccnc34)cc2)CC1` [Compound 151], the concentration giving a half-maximal response (EC50) fell in the range of 101 to 500 nM.

Regarding `CC(C)N1CCN(c2ccc(Nc3ncc(-c4cc(F)c(C(N)=O)c(F)c4)n4ccnc34)cc2)CC1` [Compound 193], the EC50 is 501 to 1000 nM.

Regarding `CN1CCC(COc2ccc(Nc3ncc(-c4ccc(C(N)=O)c(F)c4)n4ccnc34)cc2)CC1` [Compound 159, 2-Fluoro-4-{8-[4-(1-methyl-piperidin-4-ylmethoxy)-phenylamino]-imidazo[1,2-a]pyrazin-5-yl}-benzamide], the concentration giving a half-maximal response (EC50) was in the range of 101 to 500 nM.

In the case of `NC(=O)c1ncc(-c2cnc(Nc3ccc(N4CCOCC4)cc3)c3nccn23)s1` [Compound 173, 5-[8-(4-Morpholin-4-yl-phenylamino)-imidazo[1,2-a]pyrazin-5-yl]-thiazole-2-carboxylic acid amide], the concentration giving a half-maximal response (EC50) was greater than 1000 nM.

With `CN1CCN(c2ccc(Nc3ncc(-c4cc(F)c(C(N)=O)c(F)c4)n4ccnc34)cc2)CC1` [Compound 140], the EC50 is greater than 1000 nM.

As to `CN1CCN(c2ccc(Nc3ncc(-c4ccc(C(N)=O)s4)n4ccnc34)cc2)CC1` [Compound 127, (4-(4-Methylpiperazin-1-yl)phenyl)-[5-(2-carboxamido-5-thienyl)imidazo[1,2-a]pyrazin-8-yl]amine], the EC50 was 101 to 500 nM.

`CN1CCN(c2ccc(Nc3ncc(-c4csc(C(N)=O)c4)n4ccnc34)cc2)CC1` [Compound 118]: the 50% effective concentration (EC50) was greater than 1000 nM.

With `NC(=O)c1ccc(-c2cnc(Nc3ccc(N4CCN(CCO)CC4)cc3)c3nccn23)cc1` [Compound 156], the concentration for a half-maximal effect (EC50) lay in the range of 101 to 500 nM.

In the case of `Cc1oc(-c2cnc(Nc3ccc(N4CCOCC4)cc3)c3nccn23)cc1C(N)=O` [Compound 188], the EC50 was in the range of 501 to 1000 nM.

On to `CN1CCN(c2ccc(Nc3ncc(-c4ccc(C(N)=O)cc4)n4ccnc34)cc2)CC1` [Compound 143], for which the EC50 was in the range of 501 to 1000 nM.

As for `CN(C)Cc1cc(Nc2ncc(-c3cn[nH]c3)n3ccnc23)ccc1N1CCOCC1` [Compound 218, (3-Dimethylaminomethyl-4-morpholin-4-yl-phenyl)-[5-(1H-pyrazol-4-yl)-imidazo[1,2-a]pyrazin-8-yl]-amine], the 50% effective concentration (EC50) is greater than 1000 nM.

Consider `CN(C)c1ccc(CNC(=O)c2ccc(Nc3ncc(-c4cn[nH]c4)n4ccnc34)cc2)cc1` [Compound 89], for which the half-maximal effective concentration (EC50) was 501 to 1000 nM.

Consider `O=C(NCCN1CCOCC1)c1ccc(Nc2ncc(-c3cn[nH]c3)n3ccnc23)cc1` [Compound 53], for which the half-maximal effective concentration (EC50) is greater than 1000 nM.

With `CN1CCN(c2ccc(Nc3ncc(-c4ccc(C(N)=O)cn4)n4ccnc34)cc2)CC1` [Compound 128], the EC50 was greater than 1000 nM.

Take `NS(=O)(=O)c1ccc(Nc2ncc(-c3cn[nH]c3)n3ccnc23)cc1` [Compound 36]: the EC50 was greater than 1000 nM.

For the compound `CN1CCN(c2ccc(Nc3ncc(-c4ccc(C(N)=O)c(Cl)c4)n4ccnc34)cc2)CC1` [Compound 124], the 50% effective concentration (EC50) is greater than 1000 nM.

The term EC50 denotes the concentration at which the effect is half-maximal.
